In patent US7749316B2, “Water-based inks for ink-jet printing” (Kao Corporation, priority 2006, dated 2010):

How the values were obtained:
[1] = Solubility of nonionic organic compound in water; settings: for solubility in 100 g of water: in 100 g of water as measured at 25° C.; for Solubility of nonionic organic compound: saturated solubility in 100 g of water, 25° C.
Method: The solubility is expressed by a saturated solubility of the nonionic organic compound in 100 g of water. The stirring for the measurement was conducted within 1 h.

[2] = Surface tension of water containing nonionic organic compound; format: physicochemical; settings: 0.001 g of compound in 100 g of water, 25° C.
Text: The lower limit of the surface tension is preferably 40 mN/m or more.

SMILES	solubility in 100 g of water [1]	Surface tension of water containing nonionic organic compound [2]	Solubility of nonionic organic compound [1]	Surface tension of water containing nonionic organic compound ([2]; listed as lauric acid monoglyceride)
CCCCCCCCC(O)CO (centres unmarked) [1,2-decanediol]	0.055 g	55 mN/m		
CCCCCCCCCC(=O)OCC(O)CO (centres unmarked) [decanoic acid monoglyceride]		65 mN/m		
CCCCC(CC)COCC(O)CO (centres unmarked) [2-ethylhexyl glyceryl ether]	0.15 g	62 mN/m		
CCCCCCC(O)CO (centres unmarked) [1,2-octanediol]	0.20 g	65 mN/m		

Other lines, results leading:

solubility in 100 g of water [1]	Surface tension of water containing nonionic organic compound [2]	Solubility of nonionic organic compound [1]	Surface tension of water containing nonionic organic compound ([2]; listed as lauric acid monoglyceride)	SMILES
0.001 g	47.1 mN/m	0.001 g/100 g		CCCCCCCCCCC(O)CO (centres unmarked) [PO-1, 1,2-Dodecanediol]
0.05 g	57.8 mN/m	0.05 g/100 g		CC(C)CCCCCCCOCC(O)CO (centres unmarked) [PO-3, Isodecyl monoglyceryl ether]
0.005 g	65 mN/m	0.15 g/100 g	63 mN/m	CCCCCCCCCCCC(=O)OCC(O)CO (centres unmarked) [PO-2, Dodecanoic acid monoglyceride]
